According to PubChem BioAssay (NCI):
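How tested: cells in 96-well plates exposed to compound for 48 hours at five concentrations. GI50 is the concentration that inhibits growth by half. TGI denotes the concentration required for complete inhibition of growth.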

Experiments:
Assay in all cases: NCI tumour cell line growth inhibition, 48 h
[1] = test system: KM12 colon
[2] = test system: BT-549 breast
[3] = test system: MOLT-4 leukemia
[4] = test system: RPMI-8226 leukemia
[5] = test system: LOX IMVI melanoma
[6] = test system: HCT-15 colon
[7] = test system: MDA-MB-435
[8] = test system: IGROV1 ovarian
[9] = test system: SNB-75 CNS
[10] = test system: SR leukemia
[11] = test system: MALME-3M melanoma
[12] = test system: ACHN renal
[13] = test system: SK-MEL-28 melanoma
[14] = test system: CAKI-1 renal
[15] = test system: NCI/ADR-RES ovarian
[16] = test system: NCI-H460 lung
[17] = test system: HL-60(TB) leukemia
[18] = test system: MCF7 breast
[19] = test system: M14 melanoma
[20] = test system: SK-MEL-2 melanoma
[21] = test system: OVCAR-5 ovarian
[22] = test system: NCI-H522 lung
[23] = test system: TK-10 renal
[24] = test system: SF-268 CNS
[25] = test system: OVCAR-8 ovarian
[26] = test system: CCRF-CEM leukemia
[27] = test system: T-47D breast
[28] = test system: NCI-H23 lung
[29] = test system: SK-MEL-5 melanoma
[30] = test system: SW-620 colon
[31] = test system: UACC-62 melanoma
[32] = test system: HOP-62 NSCLC
[33] = test system: K-562 leukemia
[34] = test system: DU-145 prostate
[35] = test system: A498 renal
[36] = test system: A549 NSCLC
[37] = test system: U251 CNS
[38] = test system: HT29 colon
[39] = test system: HS 578T breast
[40] = test system: COLO 205 colon
[41] = test system: UACC-257 melanoma
[42] = test system: SK-OV-3 ovarian
[43] = test system: HOP-92 NSCLC
[44] = test system: SF-295 CNS
[45] = test system: SNB-19 CNS
[46] = test system: NCI-H226 lung
[47] = test system: RXF 393 renal
[48] = test system: SN12C renal
[49] = test system: 786-0 renal
[50] = test system: MDA-MB-231 breast
[51] = test system: OVCAR-3 ovarian
[52] = test system: SF-539 CNS
[53] = test system: PC-3 prostate
[54] = test system: HCT-116 colon
[55] = test system: HCC-2998 colon
[56] = test system: OVCAR-4 ovarian
[57] = test system: UO-31 renal

## CCCOC(=O)c1ccc2c(c1)[N+](=O)C(C(=O)c1ccccc1)=C(C(F)(F)F)[N+]2=O
[1]
  GI50: 1.81 µM
  TGI: 3.44 µM
[2]
  GI50: 1.79 µM
  TGI: 3.27 µM
[3]
  GI50: 2.05 µM
  TGI: 4.09 µM
[4]
  GI50: 1.94 µM
  TGI: 4.11 µM
[5]
  GI50: 1.72 µM
  TGI: 3.35 µM
[6]
  GI50: 1.63 µM
  TGI: 3.3 µM
[7]
  GI50: 1.71 µM
  TGI: 3.26 µM
[8]
  GI50: 1.83 µM
  TGI: 3.61 µM
[9]
  GI50: 1.49 µM
  TGI: 3 µM
[10]
  GI50: 1.88 µM
  TGI: 4.85 µM
[11]
  GI50: 1.95 µM
  TGI: 3.64 µM
[12]
  GI50: 1.78 µM
  TGI: 3.26 µM
[13]
  GI50: 1.85 µM
  TGI: 3.51 µM
[14]
  GI50: 1.78 µM
  TGI: 3.37 µM
[15]
  GI50: 1.89 µM
  TGI: 3.69 µM
[16]
  GI50: 2.04 µM
  TGI: 4.28 µM
[17]
  GI50: 1.96 µM
  TGI: 3.88 µM
[18]
  GI50: 1.64 µM
  TGI: 3.33 µM
[19]
  GI50: 1.82 µM
  TGI: 3.37 µM
[20]
  GI50: 1.84 µM
  TGI: 3.52 µM
[21]
  GI50: 1.77 µM
  TGI: 3.31 µM
[22]
  GI50: 1.8 µM
  TGI: 3.5 µM
[23]
  GI50: 1.59 µM
  TGI: 2.99 µM
[24]
  GI50: 1.78 µM
  TGI: 3.48 µM
[25]
  GI50: 1.84 µM
  TGI: 3.55 µM
[26]
  GI50: 1.85 µM
  TGI: 3.98 µM
[27]
  GI50: 1.8 µM
  TGI: 3.69 µM
[28]
  GI50: 1.78 µM
  TGI: 3.38 µM
[29]
  GI50: 1.65 µM
  TGI: 3.11 µM
[30]
  GI50: 1.84 µM
  TGI: 3.68 µM
[31]
  GI50: 1.76 µM
  TGI: 3.26 µM
[32]
  GI50: 1.8 µM
  TGI: 3.37 µM
[33]
  GI50: 2.1 µM
  TGI: 4.12 µM
[34]
  GI50: 1.84 µM
  TGI: 3.31 µM
[35]
  GI50: 1.3 µM
  TGI: 2.83 µM
[36]
  GI50: 1.67 µM
  TGI: 3.33 µM
[37]
  GI50: 1.76 µM
  TGI: 3.2 µM
[38]
  GI50: 2.11 µM
  TGI: 4.04 µM
[39]
  GI50: 2.01 µM
  TGI: 4.53 µM
[40]
  GI50: 2.09 µM
  TGI: 3.85 µM
[41]
  GI50: 1.75 µM
  TGI: 3.22 µM
[42]
  GI50: 1.89 µM
  TGI: 3.33 µM
[43]
  GI50: 1.13 µM
  TGI: 2.43 µM
[44]
  GI50: 1.68 µM
  TGI: 3.21 µM
[45]
  GI50: 1.75 µM
  TGI: 3.22 µM
[46]
  GI50: 2.06 µM
  TGI: 4.69 µM
[47]
  GI50: 1.7 µM
  TGI: 3.25 µM
[48]
  GI50: 1.79 µM
  TGI: 3.36 µM
[49]
  GI50: 1.83 µM
  TGI: 3.32 µM
[50]
  GI50: 1.91 µM
  TGI: 3.45 µM
[51]
  GI50: 1.74 µM
  TGI: 3.17 µM
[52]
  GI50: 1.79 µM
  TGI: 3.21 µM
[53]
  GI50: 1.55 µM
  TGI: 2.94 µM
[54]
  GI50: 1.7 µM
  TGI: 3.36 µM
[55]
  GI50: 1.81 µM
  TGI: 3.29 µM
[56]
  GI50: 1.74 µM
  TGI: 3.36 µM
[57]
  GI50: 1.67 µM
  TGI: 3.06 µM

## Cc1ccc2c(c1)c(C1=C(c3cn(C)c4ccccc34)C(=O)NC1=O)cn2C
[1]
  GI50: 1.92 µM
  TGI: 9.09 µM
[2]
  GI50: 3.65 µM
  TGI: 11.1 µM
[3]
  GI50: 2.56 µM
  TGI: 13.9 µM
[4]
  GI50: 2.19 µM
  TGI: 9.18 µM
[5]
  GI50: 2.93 µM
  TGI: > 23.4 µM
[6]
  GI50: 1.39 µM
  TGI: > 25 µM
[7]
  GI50: 0.674 µM
  TGI: > 11.2 µM
[8]
  GI50: 5.23 µM
  TGI: > 14.9 µM
[9]
  GI50: 0.723 µM
  TGI: > 17.8 µM
[10]
  GI50: 0.966 µM
  TGI: 9.81 µM
[11]
  GI50: 4.4 µM
  TGI: > 21.4 µM
[12]
  GI50: 3.09 µM
  TGI: > 23.4 µM
[13]
  GI50: 4 µM
  TGI: > 22.5 µM
[14]
  GI50: 3.63 µM
  TGI: > 25 µM
[15]
  GI50: 3.23 µM
  TGI: > 25 µM
[16]
  GI50: 1.26 µM
  TGI: 9.01 µM
[17]
  GI50: 1.33 µM
  TGI: 11.3 µM
[18]
  GI50: 1.08 µM
  TGI: > 16.3 µM
[19]
  GI50: 2.07 µM
  TGI: > 25 µM
[20]
  GI50: 1.42 µM
  TGI: 6.81 µM
[21]
  GI50: 10.8 µM
  TGI: > 25 µM
[22]
  GI50: 0.927 µM
  TGI: 12.2 µM
[23]
  GI50: 8.67 µM
  TGI: > 25 µM
[24]
  GI50: 3.09 µM
  TGI: > 25 µM
[25]
  GI50: 5.3 µM
  TGI: > 25 µM
[26]
  GI50: 1.32 µM
  TGI: 13.3 µM
[27]
  GI50: 4 µM
  TGI: 20 µM
[28]
  GI50: 4.9 µM
  TGI: > 25 µM
[29]
  GI50: 1.48 µM
  TGI: 5.07 µM
[30]
  GI50: 1.16 µM
  TGI: > 25 µM
[31]
  GI50: 1.35 µM
  TGI: 9.79 µM
[32]
  GI50: 3.17 µM
  TGI: > 25 µM
[33]
  GI50: 1.53 µM
  TGI: > 25 µM
[34]
  GI50: 6.73 µM
  TGI: 22.2 µM
[35]
  GI50: 1.34 µM
  TGI: 6.14 µM
[36]
  GI50: 1.97 µM
  TGI: > 25 µM
[37]
  GI50: 1.52 µM
  TGI: > 25 µM
[38]
  GI50: 1.01 µM
  TGI: 6.77 µM
[39]
  GI50: 0.595 µM
  TGI: 3.55 µM
[40]
  GI50: 1.49 µM
  TGI: 7.18 µM
[41]
  GI50: 3.39 µM
  TGI: > 24.2 µM
[42]
  GI50: 2.72 µM
  TGI: > 25 µM
[43]
  GI50: 5.96 µM
  TGI: > 22.1 µM
[44]
  GI50: 1.4 µM
  TGI: > 15.7 µM
[45]
  GI50: 8.15 µM
  TGI: > 25 µM
[46]
  GI50: 3.57 µM
  TGI: 13 µM
[47]
  GI50: 1.54 µM
  TGI: 4.79 µM
[48]
  GI50: 3.12 µM
  TGI: 16.8 µM
[49]
  GI50: 5.21 µM
  TGI: > 22.8 µM
[50]
  GI50: 6.93 µM
  TGI: > 25 µM
[51]
  GI50: 0.904 µM
  TGI: 3.44 µM
[52]
  GI50: 1.11 µM
  TGI: 5.58 µM
[53]
  GI50: 1.75 µM
  TGI: > 25 µM
[54]
  GI50: 1.36 µM
  TGI: 10.2 µM
[55]
  GI50: 9.25 µM
  TGI: > 25 µM
[56]
  GI50: 3.79 µM
  TGI: > 21.8 µM
[57]
  GI50: 2.77 µM
  TGI: 13.8 µM
